Values quoted from earlier work in patent US20090118503A1, “FAAH INHIBITORS” (priority 2007, published 2009).

Columns and labels:
[1] = system: MCF-7 cells; conditions: up to 100 μM
[2] = system: prostaglandin synthesis

| Structure (SMILES) | cell viability (as assessed by trypan blue) [1] | ability to inhibit prostaglandin synthesis [2] |
| --- | --- | --- |
| CCCCC/C=C\C/C=C\C/C=C\C/C=C\CCCC(=O)NCCO [anandamide] | No significant decrease in cell viability | – |
| Cc1c(CC(=O)O)c2cc(O)ccc2n1C(=O)c1ccc(Cl)cc1 [desmethyl metabolite, (1-(4-chlorobenzoyl)-5-hydroxy-2-methyl-1H-indol-3-yl]acetic acid] | – | some ability to inhibit prostaglandin synthesis |
